Test results as given in the supplement of paper PMC10307832.

Key:
Assay in all cases: relative viability (nuclei count vs DMSO), 5 days (fraction); higher = more cells survive
[1] = compound: CC1CC(=O)N(C2=CN=C(N=C2N1C3CCCC3)NC4=C(C=C(C=C4)C(=O)NC5CCN(CC5)C)OC)C [NPK76-II-72-1] + Cc1nc(NC(=O)N2CCC[C@H]2C(N)=O)sc1-c1ccnc(C(C)(C)C(F)(F)F)c1 [Alpelisib] (partner 2 µM)
How it was run: (§1)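 Relative viability divides the nuclei count in treated wells by that in vehicle wells. Lung cancer cell lines were seeded in 1536-well plates, dosed by pin tool the next day, and fixed and stained after 5 days in one step with final 0.05% Triton X-100, 1% formaldehyde and 1 ug/ml Hoechst. Dosing was a single drug or a fixed anchor-drug dose plus five library-drug doses (not always all listed) in √10 steps, and values are medians of duplicate plates imaged at 4×.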

BI-2536 + Pemetrexed = compound: CC[C@@H]1C(=O)N(C)c2cnc(Nc3ccc(C(=O)NC4CCN(C)CC4)cc3OC)nc2N1C1CCCC1 [BI-2536] + Nc1nc2[nH]cc(CCc3ccc(C(=O)N[C@@H](CCC(=O)O)C(=O)O)cc3)c2c(=O)[nH]1 [Pemetrexed] (partner 0.2 µM)
How it was run: as §1

NPK76-II-72-1 = compound: CC1CC(=O)N(C2=CN=C(N=C2N1C3CCCC3)NC4=C(C=C(C=C4)C(=O)NC5CCN(CC5)C)OC)C [NPK76-II-72-1]
How it was run: (§2)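 Five library-drug doses, separated by factors of √10, were pinned into 1536-well plates holding lung cancer cell lines after an overnight stay at 37 °C. Cells were fixed, permeabilised and Hoechst-stained in one step after 5 days without medium change, then imaged at 4×. Viability compares treated-well with vehicle-well nuclei, counted in MetaXpress, as a median across plates. Passing plates had control CV below 25% and at least one doubling.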

BI-2536 = compound: CC[C@@H]1C(=O)N(C)c2cnc(Nc3ccc(C(=O)NC4CCN(C)CC4)cc3OC)nc2N1C1CCCC1 [BI-2536]
How it was run: as §2

Cell Line	relative viability ([1]; first compound 0.01 µM)	relative viability ([1]; first compound 0.03162 µM)	relative viability ([1]; first compound 0.1 µM)	relative viability ([1]; first compound 0.3162 µM)	relative viability ([1]; first compound 1 µM)	relative viability (BI-2536 + Pemetrexed; first compound 0.01 µM)	relative viability (BI-2536 + Pemetrexed; first compound 0.03162 µM)	relative viability (BI-2536 + Pemetrexed; first compound 0.1 µM)	relative viability (BI-2536 + Pemetrexed; first compound 0.3162 µM)	relative viability (BI-2536 + Pemetrexed; first compound 1 µM)	relative viability (NPK76-II-72-1; 0.01 µM)	relative viability (NPK76-II-72-1; 0.03162 µM)	relative viability (NPK76-II-72-1; 0.1 µM)	relative viability (NPK76-II-72-1; 0.3162 µM)	relative viability (NPK76-II-72-1; 1 µM)	relative viability (BI-2536; 0.01 µM)	relative viability (BI-2536; 0.03162 µM)	relative viability (BI-2536; 0.1 µM)	relative viability (BI-2536; 0.3162 µM)	relative viability (BI-2536; 1 µM)
LC-2-ad	0.845	0.921	0.838	0.936	1	0.281	0.234	0.171	0.165	0.177	1.01	0.996	0.952	1	0.978	0.954	0.703	0.222	0.211	0.215
NCI-H1703	0.316	0.343	0.35	0.314	0.4						0.842	1.07	0.935	0.979	1.27	0.896	0.614	0.525	0.158	0.131
NCI-H1437	0.972	0.945	0.974	0.898	1	0.321	0.288	0.267	0.227	0.212	0.981	0.972	0.952	0.964	1.01	0.981	0.911	0.804	0.184	0.174
SK-LU-1	1.04	1.03	0.945	1.01	1.18	0.94	0.938	0.392	0.265	0.243	0.987	1.02	1.02	0.947	1.01	1.03	0.989	0.477	0.248	0.225
H3255	0.683	0.663	0.721		0.934	0.543	0.528	0.492	0.248	0.268	0.918	0.938	0.995	0.72	1.1	0.86	0.872	0.573	0.257	0.29
Calu-6	0.952	1.03	1.05	0.972	1.14						0.988	1.05	1.03	0.954	0.996	1.02	0.861	0.51	0.117	0.111
NCI-H1792	0.747	0.793	0.668	0.711	0.767	0.779	0.792	0.328	0.0539	0.0316	0.874	0.895	0.906	0.857	1.04	1.03	0.851	0.416	0.168	0.114
NCI-H1650						0.383	0.297	0.288	0.166	0.136	0.86	0.993	0.929	0.891	0.996	0.889	0.801	0.219	0.14	0.143
NCI-H727	0.476	0.516	0.626	0.543	0.713						0.882	1.03	0.836	1.02	0.976	1.02	0.998	0.764	0.512	0.31
EBC-1	0.927	0.931	0.828	0.836	0.906						0.917	1.02	0.94	0.984	1.07	1.04	0.804	0.432	0.224	0.202
NCI-H1623											0.919	0.953	0.901	0.852	0.932	0.956	0.91	0.852	0.462	0.28
NCI-H2342							0.724	0.716	0.373	0.42	1.02	1.08	0.954	0.823	1.04	0.818	0.909	0.865	0.418	0.393
SW 900						0.492	0.468	0.46	0.198	0.149	0.786	0.757	0.796	0.936	0.947	0.883	0.937	0.696	0.244	0.205
NCI-H1299	1.09	1.07	1.03	1.05	1.06						1	1.03	1.01	1.01	1.02	0.968	1.05	0.924	0.291	0.266
NCI-H522						1.1	0.977	1.03	0.342	0.288	0.922	0.821	0.892	0.929	1.1	0.862	0.969	0.639	0.374	0.332
A549	0.84	0.824	0.889	0.716	0.769						0.937	1.05	1.01	1	1.03	0.987	0.936	0.628	0.0475	0.0473
NCI-H1648						0.878	0.511	0.41	0.293	0.265	0.861	0.943	0.537	0.719	0.773	0.98	0.826	0.63	0.301	0.267
IA-LM	0.895	0.851	0.657	0.612	0.705						0.871	0.836	0.919	0.842	1.14	0.954	0.912	0.649	0.0924	0.061
ChaGo-K-1						0.268	0.264	0.215	0.179	0.17	0.985	0.951	1.04	0.941	0.921	0.911	0.965	0.674	0.239	0.197
ABC-1	0.839	0.982	1.11	0.953	1						0.759	0.886	0.686	0.955	0.855	0.892	0.879	0.212	0.395	0.265
